Legend:
[1] = biological target: T1, alpha-amylase from pancreas of pig (Sus scrofa, UniProt P00690); assay: In vitro inhibition of pig alpha-amylase; type: biochemical; conditions: 35 micrograms/ml; 100% = activity without inhibitor
T1 construct: alpha-amylase from pancreas of pig; purchased Sigma; host or cells: pig pancreas
T1 sequence (P00690 16-511): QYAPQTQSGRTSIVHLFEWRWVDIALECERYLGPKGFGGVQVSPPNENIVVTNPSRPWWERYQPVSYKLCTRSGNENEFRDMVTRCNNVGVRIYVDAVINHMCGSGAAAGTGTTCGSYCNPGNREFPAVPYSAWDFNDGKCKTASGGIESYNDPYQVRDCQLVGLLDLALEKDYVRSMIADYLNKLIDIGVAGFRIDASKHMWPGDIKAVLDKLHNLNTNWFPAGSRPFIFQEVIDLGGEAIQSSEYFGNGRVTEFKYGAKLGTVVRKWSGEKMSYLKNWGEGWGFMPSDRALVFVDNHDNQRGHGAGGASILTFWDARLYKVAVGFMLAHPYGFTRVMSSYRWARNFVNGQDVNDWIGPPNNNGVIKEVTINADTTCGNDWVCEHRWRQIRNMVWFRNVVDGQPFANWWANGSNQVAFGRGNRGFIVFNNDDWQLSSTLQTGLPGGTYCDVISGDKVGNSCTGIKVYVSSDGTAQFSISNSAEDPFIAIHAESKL
Procedure: The enzymes tested were obtained from the following sources: alpha-amylase from pancreas of pig and alpha-glucosidase from Saccharomyces cerevisiae (both purchased from Sigma) and alpha-glucosidase from pig (isolated from pig intestine according to Menakshy et al. 2008).
Measures alpha-amylase activity and alpha-glucosidase were carried out according to procedures supplied by Sigma acquired with enzymes. Briefly, the alpha-glucosidase activity was determined spectrophotometrically at 400 nm, with p-Nitrophenyl α-D-Glucoside (PNP) as substrate and alpha-amylase activity was determined spectrophotometrically at 540 nm, with soluble potato starch as substrate. As a positive control measurements were performed with acarbose as inhibitor.
For measures with pig alpha-amylase the positive control measures were with acarbose at 35 micrograms/ml, while the concentration of pomegranate extract tested was 250 micrograms/ml.

[2] = biological target: T2, 3-hydroxy-3-methylglutaryl-CoA reductase (HMGR) (Homo sapiens, UniProt P04035); assay: In vitro HMGR activity (Sigma kit); type: biochemical; conditions: 500 nanomolar; 100% = activity without inhibitor
T2 construct: purchased Sigma
T2 sequence (P04035 426-888 limits assumed): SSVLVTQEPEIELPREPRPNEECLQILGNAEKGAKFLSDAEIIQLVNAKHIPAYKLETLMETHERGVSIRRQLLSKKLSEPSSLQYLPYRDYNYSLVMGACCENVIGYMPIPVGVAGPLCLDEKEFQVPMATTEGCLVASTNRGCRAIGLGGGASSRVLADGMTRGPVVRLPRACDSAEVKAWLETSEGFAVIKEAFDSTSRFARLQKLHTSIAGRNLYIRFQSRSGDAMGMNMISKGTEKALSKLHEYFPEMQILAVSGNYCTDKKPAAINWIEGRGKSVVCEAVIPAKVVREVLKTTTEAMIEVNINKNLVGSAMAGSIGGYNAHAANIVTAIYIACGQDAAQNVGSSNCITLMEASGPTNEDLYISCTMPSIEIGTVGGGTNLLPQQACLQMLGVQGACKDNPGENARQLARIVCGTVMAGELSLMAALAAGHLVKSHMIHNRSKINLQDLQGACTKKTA
Procedure: Measurements were performed in triplicate. In the case of HMGR concentration measurements used for positive control with pravastatin was 500 nanomolar, while the concentration of pomegranate extract tested was 100 micrograms/ml.

% Pig alfa-amilase Activity [1] [%] | % HMGR activity [2] [%] | SMILES
41.2 ± 2.3 | – | C[C@H]1O[C@H](O[C@H]2[C@H](O)[C@@H](O)[C@@H](O[C@H]3[C@H](O)[C@@H](O)C(O)O[C@@H]3CO)O[C@@H]2CO)[C@H](O)[C@@H](O)[C@@H]1N[C@H]1C=C(CO)[C@@H](O)[C@H](O)[C@H]1O (some centres unmarked) [acarbose]
– | 9.7 ± 3.4 | CC[C@H](C)C(=O)O[C@H]1C[C@H](O)C=C2C=C[C@H](C)[C@H](CC[C@@H](O)C[C@@H](O)CC(=O)O)[C@H]21 [pravastatine, pravastatin]
